Results from patent US7495027B2, “3-aryl-4-hydroxyfuranone compounds and the human and animal health use thereof” (Wyeth, priority 2003, dated 2009).
In brackets after ≈: the same amount, converted by molar mass. Where two headings read alike, the source gives them in different places.

What was measured:
enterococci = experiment: Minimum inhibitory concentration, microdilution broth method, enterococci; assay type: cell-based; details: Mueller-Hinton broth, 18-22 hours at 35° C.; for MIC: Enterococcus faecalis
How it was run: (§1)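 Following NCCLS standard M7-A5, MICs were determined by microdilution in Mueller-Hinton broth, with 5% horse blood added for streptococci.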

Streptococci = experiment: Minimum inhibitory concentration, microdilution broth method, streptococci; assay type: cell-based; details: Mueller-Hinton broth with 5% horse blood, 18-22 hours at 35° C.; for MIC: S. pneumo GC 1894
How it was run: as §1

[1] = target: E. coli Uridine-diphosphate-N-acetylmuramoyl-L-alanine: D-glutamate liease, MurD (Escherichia coli, UniProt P14900); experiment: biochemical; details: (E) E. coli enzyme
How it was run: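 Final buffer 83 mM Tris/HCl pH 8.0, 50 mM MgCl2, 2 mM ATP. Compounds from 10 mg/mL DMSO stocks diluted to 100 μg/mL in 50 mM Tris/HCl pH 8.5 (working solution, not final assay level).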

[2] = target: E. coli UDP-N-acetylglucosamine enolpyruvoyl transferase, MurA (Escherichia coli, UniProt P0A749); experiment: biochemical; details: (E) E. coli enzyme
How it was run: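 Compound in DMSO/water pre-incubated 10 min at 37° C with enzyme in 50 mM Tris/HCl pH 8.0, 5 mM DTT, 20% glycerol. After Tris/BME and assay buffer were added, OD340 was read at start. Reaction ran 1 hr at 37° C, then stop solution was added with 30 min colour development.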

[3] = target: E. coli Uridine-diphosphate-N-acetvimuramoyl: L-alanine lipase, MurC (Escherichia coli, UniProt P17952); experiment: Inhibitory activity against MurC (E. coli); assay type: biochemical; details: (E) E. coli enzyme; for IC50: read-out: MurC IC50 (converted)
[4] = target: T1, S. aureus Enopyruvyl-UPD-N-acetylglucosamine reductase, Mur B (Staphylococcus aureus, UniProt P61431); experiment: biochemical; details: (S) S. aureus enzyme; read-out: MurB IC50 (converted)
T1 sequence (P61431 1-307): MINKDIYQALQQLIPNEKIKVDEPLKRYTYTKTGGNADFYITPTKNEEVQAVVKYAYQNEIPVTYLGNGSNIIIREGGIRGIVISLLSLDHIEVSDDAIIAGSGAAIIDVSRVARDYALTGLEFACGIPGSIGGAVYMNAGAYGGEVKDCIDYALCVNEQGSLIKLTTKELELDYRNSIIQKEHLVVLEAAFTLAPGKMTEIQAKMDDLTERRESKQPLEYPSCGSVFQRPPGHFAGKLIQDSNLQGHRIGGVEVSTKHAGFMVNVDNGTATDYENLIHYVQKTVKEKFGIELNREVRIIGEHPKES

[5] = E. faecalis GC 2242, read-out: MIC E. faecalis GC 2242
[6] = E. faecalis GC 4555, read-out: MIC E. faecalis GC 4555

Sequence of E. coli Uridine-diphosphate-N-acetvimuramoyl: L-alanine lipase, MurC (P17952 whole entry): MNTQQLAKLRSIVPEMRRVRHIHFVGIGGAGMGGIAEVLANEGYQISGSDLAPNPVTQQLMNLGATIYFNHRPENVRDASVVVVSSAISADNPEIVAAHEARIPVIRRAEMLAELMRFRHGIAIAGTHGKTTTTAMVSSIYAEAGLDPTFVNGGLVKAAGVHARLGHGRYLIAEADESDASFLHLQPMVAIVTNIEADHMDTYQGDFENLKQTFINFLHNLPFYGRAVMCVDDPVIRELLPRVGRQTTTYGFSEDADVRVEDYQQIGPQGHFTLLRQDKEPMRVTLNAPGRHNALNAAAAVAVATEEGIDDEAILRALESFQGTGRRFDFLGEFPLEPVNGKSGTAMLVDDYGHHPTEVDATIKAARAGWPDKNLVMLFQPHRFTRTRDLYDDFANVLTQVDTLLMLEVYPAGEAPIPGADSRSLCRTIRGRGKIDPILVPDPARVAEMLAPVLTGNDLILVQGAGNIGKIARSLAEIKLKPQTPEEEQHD
Sequence of E. coli UDP-N-acetylglucosamine enolpyruvoyl transferase, MurA (P0A749 whole entry): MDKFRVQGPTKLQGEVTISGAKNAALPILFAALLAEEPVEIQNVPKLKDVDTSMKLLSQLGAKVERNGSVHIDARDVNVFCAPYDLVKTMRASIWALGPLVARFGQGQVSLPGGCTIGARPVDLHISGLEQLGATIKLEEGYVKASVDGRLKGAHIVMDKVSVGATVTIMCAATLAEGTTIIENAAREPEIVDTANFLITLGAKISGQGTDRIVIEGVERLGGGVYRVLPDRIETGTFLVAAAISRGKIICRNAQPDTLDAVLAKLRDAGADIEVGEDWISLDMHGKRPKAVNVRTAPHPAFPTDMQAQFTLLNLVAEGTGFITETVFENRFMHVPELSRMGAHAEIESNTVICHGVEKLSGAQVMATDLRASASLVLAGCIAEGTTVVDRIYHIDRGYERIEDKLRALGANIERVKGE
Sequence of E. coli Uridine-diphosphate-N-acetylmuramoyl-L-alanine: D-glutamate liease, MurD (P14900 whole entry): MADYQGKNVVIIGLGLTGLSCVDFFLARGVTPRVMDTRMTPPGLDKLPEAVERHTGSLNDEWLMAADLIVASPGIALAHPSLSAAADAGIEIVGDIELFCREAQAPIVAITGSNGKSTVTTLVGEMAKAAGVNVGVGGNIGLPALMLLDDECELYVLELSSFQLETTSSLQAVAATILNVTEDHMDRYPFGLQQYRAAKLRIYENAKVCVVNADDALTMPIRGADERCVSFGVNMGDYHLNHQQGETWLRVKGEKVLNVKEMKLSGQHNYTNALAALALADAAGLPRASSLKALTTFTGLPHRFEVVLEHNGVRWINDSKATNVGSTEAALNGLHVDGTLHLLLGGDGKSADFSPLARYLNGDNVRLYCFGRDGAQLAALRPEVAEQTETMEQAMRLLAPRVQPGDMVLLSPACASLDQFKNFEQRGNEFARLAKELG

| Structure (SMILES) | MIC E. faecalis GC 2242 (enterococci; E. faecalis GC 2242) | MIC E. faecalis GC 4555 (enterococci; E. faecalis GC 4555) | MIC S. pneumo GC 1894 (Streptococci) | MurD IC50 [1] | MurA IC50 [2] | MurC IC50 [3] | MIC (enterococci; [5]) | MIC (enterococci; [6]) | MIC (Streptococci) | IC50 [1] | IC50 [2] | IC50 [3] | IC50 [4] |
| --- | --- | --- | --- | --- | --- | --- | --- | --- | --- | --- | --- | --- | --- |
| O=C1O/C(=C\c2ccc(-c3cccc(C(F)(F)F)c3)cc2)C(O)=C1c1cccc(C(F)(F)F)c1 | 1 µg/mL (≈ 2.1 µM) | 4 µg/mL (≈ 8.4 µM) | <0.125 µg/mL | 24 µg/mL | >25 (E) μg/mL | 11 µg/mL | – | – | – | – | – | – | – |
| O=C1O/C(=C\c2ccc(-c3cc(Cl)cc(Cl)c3)cc2)C(O)=C1c1cc(Cl)cc(Cl)c1 | – | – | – | 6 µg/mL | 1 (E) μg/mL | 17 µg/mL | 0.5 µg/mL (≈ 1.05 µM) | 1 µg/mL (≈ 2.09 µM) | < 0.125 µg/mL | – | – | – | – |
| O=C1OC(=Cc2ccc(-c3ccccc3)cc2)C(O)=C1c1cccc(C(F)(F)F)c1 (mixture of isomers) [Example 11] | 1 µg/mL | 8 µg/mL | <0.125 µg/mL | 21 µg/mL | 1 (E) μg/mL | 4 µg/mL | – | – | – | – | – | – | – |
| Cc1ccc(C=C2OC(=O)C(c3ccc(Cl)cc3)=C2O)s1 (mixture of isomers) [Example 13] | >128 µg/mL | >128 µg/mL | 2 µg/mL | > 25 µg/mL | 0.5 (E) μg/mL | 4 µg/mL | – | – | – | – | – | – | – |
| O=C1O/C(=C\c2ccc(-c3ccccc3)cc2)C(O)=C1c1cccc(C(F)(F)F)c1 [Example 10] | – | – | – | – | – | – | 1 µg/mL (≈ 2.45 µM) | 8 µg/mL (≈ 19.6 µM) | < 0.125 µg/mL | 51.4 µM | 2.45 µM | 9.79 µM | – |
| Cc1ccc(C=C2OC(=O)C(c3ccc(Cl)cc3)=C2O)s1 [Example 14] | 64 µg/mL (≈ 201 µM) | 4 µg/mL (≈ 12.5 µM) | 64 µg/mL (≈ 201 µM) | – | 5 (E) μg/mL | 13 µg/mL | – | – | – | – | – | – | – |
| O=C1O/C(=C\C2CCCCC2)C(O)=C1c1ccc(Cl)cc1 [Example 15] | – | – | – | – | – | – | 32 µg/mL (≈ 105 µM) | 64 µg/mL (≈ 210 µM) | 0.5 µg/mL (≈ 1.64 µM) | > 82 µM | > 82 µM | 55.8 µM | – |
| O=C1OC(=CC2CCCCC2)C(O)=C1c1cccc(C(F)(F)F)c1 [Example 16] | 64 µg/mL (≈ 189 µM) | 64 µg/mL (≈ 189 µM) | 0.5 µg/mL (≈ 1.48 µM) | – | >25 (E) μg/mL | 7 µg/mL | – | – | – | – | – | – | – |
| O=C1O/C(=C\C2CCCCC2)C(O)=C1c1cccc(C(F)(F)F)c1 [Example 17] | – | – | – | – | – | 10 µg/mL | 32 µg/mL (≈ 94.6 µM) | 64 µg/mL (≈ 189 µM) | < 0.125 µg/mL | – | – | – | – |
| COc1cc(/C=C2\OC(=O)C(c3cccc(Cl)c3)=C2O)ccc1-c1ccccc1Cl [Example 18] | – | – | – | – | – | – | 8 µg/mL (≈ 18.2 µM) | 16 µg/mL (≈ 36.4 µM) | 0.5 µg/mL (≈ 1.14 µM) | – | – | – | 11.4 µM |
| COc1cc(/C=C2\OC(=O)C(c3cc(Cl)cc(Cl)c3)=C2O)ccc1-c1ccccc1Cl [Example 21] | – | – | – | – | – | – | 2 µg/mL (≈ 4.22 µM) | 4 µg/mL (≈ 8.44 µM) | 0.5 µg/mL (≈ 1.06 µM) | – | – | – | 6.33 µM |
| COc1cc(/C=C2\OC(=O)C(c3cccc(Cl)c3)=C2O)ccc1-c1ccccc1C [Example 22] | – | – | – | – | – | – | 8 µg/mL (≈ 19.1 µM) | 16 µg/mL (≈ 38.2 µM) | 1 µg/mL (≈ 2.39 µM) | – | – | – | 14.3 µM |
| COc1ccccc1-c1ccc(/C=C2\OC(=O)C(c3cccc(Cl)c3)=C2O)cc1C [Example 23] | – | – | – | – | – | – | 8 µg/mL (≈ 19.1 µM) | 8 µg/mL (≈ 19.1 µM) | 1 µg/mL (≈ 2.39 µM) | – | – | – | 11.9 µM |
| COc1ccccc1-c1ccc(/C=C2\OC(=O)C(c3cc(Cl)cc(Cl)c3)=C2O)cc1C [Example 24] | – | – | – | – | – | – | 4 µg/mL (≈ 8.82 µM) | 4 µg/mL (≈ 8.82 µM) | 0.5 µg/mL (≈ 1.1 µM) | – | – | – | 4.41 µM |
| COc1cc(/C=C2\OC(=O)C(c3cc(Cl)cc(Cl)c3)=C2O)ccc1-c1ccccc1C [Example 25] | – | – | – | – | – | – | 2 µg/mL (≈ 4.41 µM) | 4 µg/mL (≈ 8.82 µM) | 0.25 µg/mL (≈ 0.551 µM) | – | – | – | 4.41 µM |
| Cc1cc(/C=C2\OC(=O)C(c3cccc(Cl)c3)=C2O)ccc1-c1ccccc1C(F)(F)F [Example 26] | – | – | – | – | – | – | 2 µg/mL (≈ 4.38 µM) | 4 µg/mL (≈ 8.76 µM) | < 0.125 µg/mL | – | – | – | 4.38 µM |
| Cc1cc(/C=C2\OC(=O)C(c3cc(Cl)cc(Cl)c3)=C2O)ccc1-c1ccccc1C(F)(F)F [Example 27] | – | – | – | – | – | – | 1 µg/mL (≈ 2.04 µM) | 2 µg/mL (≈ 4.07 µM) | 0.5 µg/mL (≈ 1.02 µM) | – | – | – | 4.07 µM |
